From PubChem BioAssay AID330 (DTP/NCI, 2004)
Several values for one entry are separate records, joined by “and”; a condition that tells them apart may be missing. Equal entries are not always repeated. Toxic doses and inconclusive results are not listed.

Tested on: P388 leukemia ip, CD2F1 mice, survival T/C
Assay: NCI In Vivo Anticancer Drug Screen. Data for tumor model P388 Leukemia (intraperitoneal) in CD2F1 (CDF1) mice
Details: endpoint: median survival time, higher = longer survival
Method in brief: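 Mice carrying the transplanted tumor received test compound or vehicle. Survival was recorded in each group, and the value is the treated-group measurement divided by that of the vehicle-treated control group.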

[1] = dose: 25.0 mg/kg/injection, schedule: Q01DX009 (ip), vehicle: saline
[2] = dose: 50.0 mg/kg/injection, schedule: Q01DX009 (ip), vehicle: saline
[3] = dose: 50.0 mg/kg/injection, schedule: Q01DX005 (ip), vehicle: saline with Tween-80
[4] = dose: 100.0 mg/kg/injection, schedule: Q01DX005 (ip), vehicle: saline with Tween-80
[5] = dose: 50.0 mg/kg/injection, schedule: Q01DX009 (ip), vehicle: saline with Tween-80
[6] = dose: 100.0 mg/kg/injection, schedule: Q01DX009 (ip), vehicle: saline with Tween-80
[7] = dose: 200.0 mg/kg/injection, schedule: Q01DX009 (ip), vehicle: saline with Tween-80
[8] = dose: 200.0 mg/kg/injection, schedule: Q01DX005 (ip), vehicle: saline with Tween-80
[9] = dose: 100.0 mg/kg/injection, schedule: Q01DX009 (ip), vehicle: saline
[10] = dose: 12.5 mg/kg/injection, schedule: Q01DX009 (ip), vehicle: saline
[11] = dose: 50.0 mg/kg/injection, schedule: Q01DX005 (ip), vehicle: Klucel (hydroxypropylcellulose) (HPC)
[12] = dose: 100.0 mg/kg/injection, schedule: Q01DX005 (ip), vehicle: Klucel (hydroxypropylcellulose) (HPC)
[13] = dose: 200.0 mg/kg/injection, schedule: Q01DX005 (ip), vehicle: Klucel (hydroxypropylcellulose) (HPC)

`COc1cc(N(CCCl)CCCl)c(OC)cc1C=Nc1cccc(Br)c1` was tested, and the T/C (dose: 6.25 mg/kg/injection, schedule: Q01DX009 (ip), vehicle: saline) was 113 % of control, the T/C (dose: 12.5 mg/kg/injection, schedule: Q01DX009 (ip), vehicle: suspension in saline) was 116 % of control and the T/C [1] was 167 % of control. For the same compound, the T/C (dose: 25.0 mg/kg/injection, schedule: Q01DX009 (ip), vehicle: suspension in saline) was 124 % of control, the T/C [2] was 254 % of control and the T/C (dose: 50.0 mg/kg/injection, schedule: Q01DX009 (ip), vehicle: suspension in saline) was 150 % of control.
For `N#CC(=O)Nc1ccc(Cl)c(Cl)c1`, the T/C (dose: 7.5 mg/kg/injection, schedule: Q01DX005 (ip), vehicle: Klucel (hydroxypropylcellulose) (HPC)) was 104 % of control, the T/C (dose: 15.0 mg/kg/injection, schedule: Q01DX005 (ip), vehicle: Klucel (hydroxypropylcellulose) (HPC)) was 99 % of control and the T/C (dose: 30.0 mg/kg/injection, schedule: Q01DX005 (ip), vehicle: Klucel (hydroxypropylcellulose) (HPC)) was 100 % of control.
With `Cc1cc(C)nc(NS(=O)(=O)c2ccc(N=c3c4ccccc4n(Cc4ccccc4)c4ccccc34)cc2)n1` the T/C [3] was 98 % of control and the T/C [4] was 88 % of control.
`CNC(=O)c1ccccc1CC1(O)CCCc2ccccc21` (centres undefined) was tested, and the T/C [5] was 101 % of control, the T/C [6] was 96 % of control and the T/C [7] was 96 % of control.
In the case of `O=C(CCCCC(=O)Nc1ccc2c(=O)c3ccccc3[nH]c2c1)Nc1ccc2c(=O)c3ccccc3[nH]c2c1`, the T/C [3] is reported as 99 % of control, the T/C [4] is reported as 104 % of control and the T/C [8] is reported as 104 % of control.
`CCC(c1ccc(OCC(=O)N2CC2)cc1)C(CC)c1ccc(OCC(=O)N2CC2)cc1` (centres undefined) was tested, and the T/C (dose: 100.0 mg/kg/injection, schedule: Q04DX003 (ip), vehicle: suspension in saline) was 99 % of control, the T/C (dose: 200.0 mg/kg/injection, schedule: Q04DX003 (ip), vehicle: suspension in saline) was 98 % of control and the T/C (dose: 400.0 mg/kg/injection, schedule: Q04DX003 (ip), vehicle: suspension in saline) was 100 % of control.
With `CCN(CC)c1ccc(/C=C(\C#N)C(N)=S)cc1` the T/C [2] was 89 % of control, the T/C [9] was 101 % of control and the T/C (dose: 200.0 mg/kg/injection, schedule: Q01DX009 (ip), vehicle: saline) was 105 % of control.
In the case of `CNS(=O)(=O)O`, the T/C [10] is reported as 86 % of control, the T/C [1] is reported as 104 % of control and the T/C [2] is reported as 105 % of control. For the same compound, the T/C [9] was 100 % of control.
With `CNC(=O)OCc1c(COC(=O)NC)c(-c2ccc(Cl)c(Cl)c2)n2c1SCC2` the T/C [3] was 106 % of control and 123 % of control.
In the case of `COc1ccccc1[B-]12OCC[N+]1(CNC(=O)c1ccccc1O)CCO2` (centres undefined), the T/C [11] is reported as 102 % of control, the T/C [12] is reported as 103 % of control and the T/C [13] is reported as 103 % of control.
For `O=C(N/N=C/c1cccc(O)c1)C(=O)N/N=C/c1cccc(O)c1`, the T/C (dose: 50.0 mg/kg/injection, schedule: Q01DX009 (ip), vehicle: water) was 101 % of control, the T/C (dose: 100.0 mg/kg/injection, schedule: Q01DX009 (ip), vehicle: water) was 100 % of control and the T/C (dose: 200.0 mg/kg/injection, schedule: Q01DX009 (ip), vehicle: water) was 102 % of control.
For `N#CCN(CNC(=O)c1ccccc1)N=O`, the T/C (dose: 100.0 mg/kg/injection, schedule: Q04DX002 (ip), vehicle: saline with Tween-80) was 101 % of control and the T/C (dose: 200.0 mg/kg/injection, schedule: Q04DX002 (ip), vehicle: saline with Tween-80) was 105 % of control.
For `Cc1[nH]c2c(ccc3ccccc32)c(=O)c1N=Nc1ccc(C(=N)N)cc1`, the T/C (dose: 50.0 mg/kg/injection, schedule: Q01DX005 (ip), vehicle: Klucel + Tween-80) was 124 % of control, the T/C (dose: 200.0 mg/kg/injection, schedule: Q01DX005 (ip), vehicle: Klucel + Tween-80) was 154 % of control and the T/C (dose: 400.0 mg/kg/injection, schedule: Q01DX005 (ip), vehicle: Klucel + Tween-80) was 168 % of control.
In the case of `COc1ccc(C[n+]2ccc3ccccc3c2C#N)cc1OC`, the T/C (dose: 12.5 mg/kg/injection, schedule: Q04DX002 (ip), vehicle: saline) is reported as 111 % of control and the T/C (dose: 25.0 mg/kg/injection, schedule: Q04DX002 (ip), vehicle: saline) is reported as 109 % of control.
With `CC(=O)CSC1=CC(C)(C)CC1=O` the T/C [11] was 96 % of control, the T/C [12] was 99 % of control and the T/C [13] was 99 % of control.
For `CN(C)CCCNCCCCNCCCN(C)C`, the T/C [5] was 105 % of control, the T/C [6] was 110 % of control and the T/C [7] was 110 % of control.
In the case of `NC(Cc1ccc(Br)cc1)c1nn[nH]n1` (centres undefined), the T/C (dose: 25.0 mg/kg/injection, schedule: Q01DX009 (ip), vehicle: saline with Tween-80) is reported as 104 % of control, the T/C [5] is reported as 100 % of control and the T/C [6] is reported as 100 % of control.
For `CC(C)(CO)NCCNC(C)(C)CO`, the T/C [3] was 98 % of control, the T/C [4] was 90 % of control and the T/C [8] was 100 % of control.
For `COC(=O)n1nc(C)c(N(C)C)n1`, the T/C [3] was 99 % of control, the T/C [4] was 106 % of control and the T/C [8] was 113 % of control.
`CCOC(=O)CC(=O)c1ccc(C)cc1` was tested, and the T/C (dose: 100.0 mg/kg/injection, schedule: Q04DX003 (ip), vehicle: saline with Tween-80) was 100 % of control, the T/C (dose: 200.0 mg/kg/injection, schedule: Q04DX003 (ip), vehicle: saline with Tween-80) was 104 % of control and the T/C (dose: 400.0 mg/kg/injection, schedule: Q04DX003 (ip), vehicle: saline with Tween-80) was 109 % of control.
For `CCOC(=O)C1SC(=S)N(c2ccccc2)C1N` (centres undefined), the T/C [10] was 98 % of control, the T/C [1] was 104 % of control and the T/C [2] was 105 % of control and 86 % of control.
`CCOc1cccc(/C=C2/C(=O)N(Cc3ccco3)SC2=S)c1O` was tested, and the T/C (dose: 3.12 mg/kg/injection, schedule: Q01DX009 (ip), vehicle: Klucel (hydroxypropylcellulose) (HPC)) was 93 % of control, the T/C (dose: 6.25 mg/kg/injection, schedule: Q01DX009 (ip), vehicle: Klucel (hydroxypropylcellulose) (HPC)) was 93 % of control and the T/C (dose: 12.5 mg/kg/injection, schedule: Q01DX009 (ip), vehicle: Klucel (hydroxypropylcellulose) (HPC)) was 93 % of control and 94 % of control. For the same compound, the T/C (dose: 25.0 mg/kg/injection, schedule: Q01DX009 (ip), vehicle: Klucel (hydroxypropylcellulose) (HPC)) was 98 % of control.
For `C/C(=N\N=C(/[Se])N1CCCCCC1)c1ccccn1`, the T/C (dose: 25.0 mg/kg/injection, schedule: Q04DX003 (ip), vehicle: Klucel (hydroxypropylcellulose) (HPC)) was 110 % of control, the T/C (dose: 50.0 mg/kg/injection, schedule: Q04DX003 (ip), vehicle: Klucel (hydroxypropylcellulose) (HPC)) was 118 % of control and the T/C (dose: 200.0 mg/kg/injection, schedule: Q04DX003 (ip), vehicle: Klucel (hydroxypropylcellulose) (HPC)) was 86 % of control.
For `O=C1CSC(c2cc(O)ccc2O)N1c1nncs1` (centres undefined), the T/C [3] was 90 % of control, the T/C [4] was 97 % of control and the T/C [8] was 91 % of control.
`CC1(C)O[Se](=O)OC1(C)C` was tested, and the T/C (dose: 1.56 mg/kg/injection, schedule: Q04DX003 (ip), vehicle: saline) was 103 % of control, the T/C (dose: 3.12 mg/kg/injection, schedule: Q04DX003 (ip), vehicle: saline) was 98 % of control and the T/C (dose: 6.25 mg/kg/injection, schedule: Q04DX003 (ip), vehicle: saline) was 90 % of control.
`O=c1c2c(nc3n1CCSCC3)NCCC2` was tested, and the T/C (dose: 100.0 mg/kg/injection, schedule: Q04DX002 (ip), vehicle: Klucel (hydroxypropylcellulose) (HPC)) was 104 % of control, the T/C (dose: 200.0 mg/kg/injection, schedule: Q04DX002 (ip), vehicle: Klucel (hydroxypropylcellulose) (HPC)) was 98 % of control and the T/C (dose: 400.0 mg/kg/injection, schedule: Q04DX002 (ip), vehicle: Klucel (hydroxypropylcellulose) (HPC)) was 100 % of control.
`COc1ccccc1C(C)c1cc2c(cc1OC)OCO2` (centres undefined) was tested, and the T/C [3] was 100 % of control, the T/C [4] was 101 % of control and the T/C [8] was 93 % of control.
For `C#CCOC(=O)C(Cl)(Cl)Cl`, the T/C (dose: 100.0 mg/kg/injection, schedule: Q04DX003 (ip), vehicle: saline) was 107 % of control and the T/C (dose: 200.0 mg/kg/injection, schedule: Q04DX003 (ip), vehicle: saline) was 115 % of control.
In the case of `C/C=C1/CN(C)C2Cc3c([nH]c4ccccc34)C(c3cc4[nH]c5c(c4cc3OC)CCN3CC4CC(CC)C3C5(COC(=O)c3ccc(OC)c(OC)c3)C4)CC1C2C(=O)OC` (centres undefined), the T/C (dose: 6.25 mg/kg/injection, schedule: Q01DX001 (ip), vehicle: Klucel (hydroxypropylcellulose) (HPC)) is reported as 107 % of control, the T/C (dose: 12.5 mg/kg/injection, schedule: Q01DX001 (ip), vehicle: Klucel (hydroxypropylcellulose) (HPC)) is reported as 106 % of control and the T/C (dose: 25.0 mg/kg/injection, schedule: Q01DX001 (ip), vehicle: Klucel (hydroxypropylcellulose) (HPC)) is reported as 106 % of control and 113 % of control. For the same compound, the T/C (dose: 50.0 mg/kg/injection, schedule: Q01DX001 (ip), vehicle: Klucel (hydroxypropylcellulose) (HPC)) was 104 % of control, the T/C (dose: 100.0 mg/kg/injection, schedule: Q01DX001 (ip), vehicle: Klucel (hydroxypropylcellulose) (HPC)) was 100 % of control and the T/C (dose: 200.0 mg/kg/injection, schedule: Q01DX001 (ip), vehicle: Klucel (hydroxypropylcellulose) (HPC)) was 100 % of control.
